Data: patent US20150366890A1, “COMPOSITIONS AND METHODS FOR TREATING FUNGAL INFECTIONS” (TRUSTEES OF BOSTON UNIVERSITY, priority 2013, published 2015)
Where two headings read alike, the source gives them in different places.

How the values were obtained:
Assay type in all cases: cell-based
[1] = tested on: C. albicans wildtype and DNA repair mutants; test: Fungicidal killing, CFU assay; conditions: C. albicans rad50/rad50 and rad52/rad52, 3 hours of drug exposure
Experimental: Overnight yeast cultures were diluted into the indicated media and grown to an OD600 of 0.2, at which point the AFs were added. Colony forming units (CFU) were measured by plating six serial dilutions onto YPD agar plates.
(§1) Overnight yeast cultures were diluted into the indicated media and grown to an OD600 of 0.2, at which point the AFs were added. Colony forming units (CFU) were measured by plating six serial dilutions onto YPD agar plates. Cells treated with MCZ were washed before serial dilution to stop growth inhibition associated with high concentrations of MCZ. CFU were counted after three days of incubation on agar plates. When indicated, thiourea (Fluka) was added 30 min prior to the addition of AFs. HPF (10 μM) (Invitrogen) and Mito Tracker (1 μM) (Invitrogen) dyes were added to PBS-washed cells at the indicated time points and incubated for 30 min prior to flow cytometry measurements, which were taken on the FACSCalibur (Becton-Dickinson). All experiments described in this section were conducted in 0.5 ml of SDC in 24-well plates incubated at 900 rpm and 37° C. for C. albicans and 30° C. and 300 rpm for S. cerevisiae. TUNEL assays were conducted as previously described (Ribeiro et al., 2006) and are described in detail in the TUNEL section of the Experimental Procedures.

S. cerevisiae = test: Mitochondrial activity by MitoTracker Red fluorescence
Experimental: It was next sought to assess the mitochondrial activity of AF-treated fungal cells. Yhe MitoTracker Red dye, which enters the mitochondrial matrix by utilizing the proton motive force and thus labels metabolically active mitochondria in viable cells was used (Arita et al., 2006; Tomas et al., 2011). Exponential phase S. cerevisiae were incubated in glucose-free synthetic complete (SC) media for 30 min and then switched to SC containing 2% glucose or non-fermentable acetate for 1.5 hours.
as §1

[2] = tested on: S. cerevisiae wildtype and deletion strains

Compound: Cc1cc(C2CCCCC2)n(O)c(=O)c1 [CIC, cicloplrox olamine]
- susceptibility of DSBR mutants compared to wildtype [1]: particularly susceptible
- increase of MitoTracker fluorescence (S. cerevisiae; drug added to glucose-incubated (SC, 2% glucose) S. cerevisiae): 10 fold
- additive resistance on deleting the remaining citrate synthases in the cit3 background ([2]; S. cerevisiae CIT1/CIT2 deletions in cit3 background): not observed
- CFU (24-well colony forming assay), AF susceptibility vs wildtype ([2]; S. cerevisiae PAB103, SDH2 deletion): Resistant (″Resistant″ or ″Sensitive″ indicate at least a 5-fold CFU difference from wildtype at the final time point)
- CFU (24-well colony forming assay), AF susceptibility vs wildtype ([2]; S. cerevisiae PAB106, FMS1 deletion): Normal
- CFU (24-well colony forming assay), AF susceptibility vs wildtype ([2]; S. cerevisiae PAB107, NDE1 deletion): Resistant (″Resistant″ or ″Sensitive″ indicate at least a 5-fold CFU difference from wildtype at the final time point)
- CFU (24-well colony forming assay), AF susceptibility vs wildtype ([2]; S. cerevisiae PAB112, MNE1 deletion): Resistant (″Resistant″ or ″Sensitive″ indicate at least a 5-fold CFU difference from wildtype at the final time point)
- CFU (24-well colony forming assay), AF susceptibility vs wildtype ([2]; S. cerevisiae PAB113, FUM1 deletion): Resistant (″Resistant″ or ″Sensitive″ indicate at least a 5-fold CFU difference from wildtype at the final time point)
- CFU (24-well colony forming assay), AF susceptibility vs wildtype ([2]; S. cerevisiae PAB114, TPK2 deletion): Normal
- CFU (24-well colony forming assay), AF susceptibility vs wildtype ([2]; S. cerevisiae PAB119, CIT2 deletion): Resistant (″Resistant″ or ″Sensitive″ indicate at least a 5-fold CFU difference from wildtype at the final time point)
- CFU (24-well colony forming assay), AF susceptibility vs wildtype ([2]; S. cerevisiae PAB121, SDH1 deletion): Resistant (″Resistant″ or ″Sensitive″ indicate at least a 5-fold CFU difference from wildtype at the final time point)
- CFU (24-well colony forming assay), AF susceptibility vs wildtype ([2]; S. cerevisiae PAB122, TPK3 deletion): Resistant (″Resistant″ or ″Sensitive″ indicate at least a 5-fold CFU difference from wildtype at the final time point)
- CFU (24-well colony forming assay), AF susceptibility vs wildtype ([2]; S. cerevisiae PAB124, TPK1 deletion): Resistant (″Resistant″ or ″Sensitive″ indicate at least a 5-fold CFU difference from wildtype at the final time point)
- CFU (24-well colony forming assay), AF susceptibility vs wildtype ([2]; S. cerevisiae PAB132, CIT3 deletion): Resistant (″Resistant″ or ″Sensitive″ indicate at least a 5-fold CFU difference from wildtype at the final time point)
- CFU (24-well colony forming assay), AF susceptibility vs wildtype ([2]; S. cerevisiae PAB135, NDI1 deletion): Resistant (″Resistant″ or ″Sensitive″ indicate at least a 5-fold CFU difference from wildtype at the final time point)
- CFU (24-well colony forming assay), AF susceptibility vs wildtype ([2]; S. cerevisiae PAB145, CIT1 deletion): Resistant (″Resistant″ or ″Sensitive″ indicate at least a 5-fold CFU difference from wildtype at the final time point)
- CFU (24-well colony forming assay), AF susceptibility vs wildtype ([2]; S. cerevisiae PAB168, RAS1 deletion): Resistant (″Resistant″ or ″Sensitive″ indicate at least a 5-fold CFU difference from wildtype at the final time point)
- CFU (24-well colony forming assay), AF susceptibility vs wildtype ([2]; S. cerevisiae PAB171, RAS2 deletion): Resistant (″Resistant″ or ″Sensitive″ indicate at least a 5-fold CFU difference from wildtype at the final time point)
- reduction of killing at 3 hours by thiourea ([2]; S. cerevisiae, 50 mM thiourea for 30 minutes prior to the addition of AF drugs): ~15 fold

Compound: CC(=O)O [acetate]
- MitoTracker fluorescence in acetate-incubated vs glucose-incubated cells (S. cerevisiae; S. cerevisiae, SC with non-fermentable acetate, 1.5 hours): approximately 5 fold
